Columns and labels:
[1] = target: PD-L1 His protein / PD-1 Fc protein (Homo sapiens (Human), UniProt Q9NZQ7); test: HTRF Assay (PD-1/PD-L1 interaction); assay type: binding; conditions: PD-L1 His 6 nM, PD-1 Fc 6 nM
[2] = target: human PD-L1 (Homo sapiens (Human), UniProt Q9NZQ7); test: T cell activation luciferase reporter cell culture system (T Cell Activation Assay); assay type: cell-based; conditions: luciferase reporter assay; PD-L1 aAPC/CHO-K1 cells with PD-1 effector Jurkat T cells
Sequence of human PD-L1 (Q9NZQ7 19-290): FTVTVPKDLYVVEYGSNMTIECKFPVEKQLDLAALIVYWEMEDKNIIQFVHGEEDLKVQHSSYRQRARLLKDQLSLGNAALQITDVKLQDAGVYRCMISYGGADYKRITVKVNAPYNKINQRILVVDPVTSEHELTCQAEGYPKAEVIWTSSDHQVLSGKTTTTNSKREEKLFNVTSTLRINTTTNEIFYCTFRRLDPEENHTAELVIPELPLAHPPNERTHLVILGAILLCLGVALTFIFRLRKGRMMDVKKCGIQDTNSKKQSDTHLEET

Sequence of PD-L1 His protein / PD-1 Fc protein (Q9NZQ7 19-238): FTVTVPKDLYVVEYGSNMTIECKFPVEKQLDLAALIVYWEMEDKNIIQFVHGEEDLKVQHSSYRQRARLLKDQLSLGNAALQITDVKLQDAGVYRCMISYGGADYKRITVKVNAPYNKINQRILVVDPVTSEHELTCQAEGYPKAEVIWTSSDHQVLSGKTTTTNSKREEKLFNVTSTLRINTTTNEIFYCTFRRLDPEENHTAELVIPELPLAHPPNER

Row | SMILES | IC50 [1] [nM] | EC50 [2] [nM]
1 | CNCc1ccc(-c2cccc(-c3ccnc(-c4ccc(CNC5CCN(C(C)=O)CC5)c(OC)c4)c3Cl)c2Cl)nc1OC [Compound 212, 1-(4-((4-(3-chloro-4-(2-chloro-3-(6-methoxy-5-((methylamino)methyl)pyridin-2-yl)phenyl)pyridin-2-yl)-2-methoxybenzyl)amino)piperidin-1-yl)ethan-1-one] | 2.72 | 20.6
2 | CNCc1ccc(-c2cccc(-c3ccnc(-c4ccc(CN5CC6(CNC(=O)C6)C5)c(OC)c4)c3Cl)c2Cl)nc1OC [Compound 213, 2-(4-(3-chloro-4-(2-chloro-3-(6-methoxy-5-((methylamino)methyl)pyridin-2-yl)phenyl)pyridin-2-yl)-2-methoxybenzyl)-2,6-diazaspiro[3.4]octan-7-one] | 2.73 | 23.5
3 | COc1cc(-c2nccc(-c3cccc(-c4ccc(CNC[C@H](C)O)c(OC)n4)c3Cl)c2Cl)cc2c1CN(C[C@H](C)O)CC2 [Compound 214, (S)-1-(((6-(2-chloro-3-(3-chloro-2-(2-((S)-2-hydroxypropyl)-8-methoxy-1,2,3,4-tetrahydroisoquinolin-6-yl)pyridin-4-yl)phenyl)-2-methoxypyridin-3-yl)methyl)amino)propan-2-ol] | 4.31 | 27
4 | COc1cc(-c2nccc(-c3cccc(-c4ccc(CN[C@H]5C[C@](C)(O)C5)c(OC)n4)c3Cl)c2Cl)cc2c1CN(C[C@H](C)O)CC2 [Compound 215, (1r,3r)-3-(((6-(2-chloro-3-(3-chloro-2-(2-((S)-2-hydroxypropyl)-8-methoxy-1,2,3,4-tetrahydroisoquinolin-6-yl)pyridin-4-yl)phenyl)-2-methoxypyridin-3-yl)methyl)amino)-1-methylcyclobutan-1-ol] | 5.58 | 25.5
5 | COc1cc(-c2nccc(-c3cccc(-c4ccc(CNC[C@@H]5CCCO5)c(OC)n4)c3Cl)c2Cl)cc2c1CN(C[C@H](C)O)CC2 [Compound 216, (S)-1-(6-(3-chloro-4-(2-chloro-3-(6-methoxy-5-(((((S)-tetrahydrofuran-2-yl)methyl)amino)methyl)pyridin-2-yl)phenyl)pyridin-2-yl)-8-methoxy-3,4-dihydroisoquinolin-2(1H)-yl)propan-2-ol] | 4.51 | 271
6 | COc1cc(-c2nccc(-c3cccc(-c4ccc(CN5CC(C)(O)C5)c(OC)n4)c3Cl)c2Cl)cc2c1CN(C[C@H](C)O)CC2 [Compound 217, (S)-1-((6-(2-chloro-3-(3-chloro-2-(2-(2-hydroxypropyl)-8-methoxy-1,2,3,4-tetrahydroisoquinolin-6-yl)pyridin-4-yl)phenyl)-2-methoxypyridin-3-yl)methyl)-3-methylazetidin-3-ol] | 2.01 | 38.2
7 | COC(=O)CNCc1ccc(-c2cccc(-c3ccnc(-c4cc5c(c(OC)c4)CN(C[C@H](C)O)CC5)c3Cl)c2Cl)nc1OC [Compound 218, methyl (S)-((6-(2-chloro-3-(3-chloro-2-(2-(2-hydroxypropyl)-8-methoxy-1,2,3,4-tetrahydroisoquinolin-6-yl)pyridin-4-yl)phenyl)-2-methoxypyridin-3-yl)methyl)glycinate] | 7.12 | 601
8 | COc1cc(-c2nccc(-c3cccc(-c4ccc5c(CN6CC7(CNC(=O)C7)C6)cn(C)c5n4)c3Cl)c2Cl)ccc1CNC[C@@H]1CCC(=O)N1 [Compound 219, (S)-2-((6-(2-chloro-3-(3-chloro-2-(3-methoxy-4-((((5-oxopyrrolidin-2-yl)methyl)amino)methyl)phenyl)pyridin-4-yl)phenyl)-1-methyl-1H-pyrrolo[2,3-b]pyridin-3-yl)methyl)-2,6-diazaspiro[3.4]octan-7-one] | 2.73 | 22.2
9 | CNCc1ccc(-c2cccc(-c3ccnc(-c4ccc(CNC[C@@H](O)CC(=O)O)c(OC)c4)c3Cl)c2Cl)nc1OC [Compound 220, (S)-4-((4-(3-chloro-4-(2-chloro-3-(6-methoxy-5-((methylamino)methyl)pyridin-2-yl)phenyl)pyridin-2-yl)-2-methoxybenzyl)amino)-3-hydroxybutanoic acid] | 2.18 | 76.1
10 | CNCc1ccc(-c2cccc(-c3ccnc(-c4ccc(CNCCC(=O)O)c(OC)c4)c3Cl)c2Cl)nc1OC [Compound 221, 3-((4-(3-chloro-4-(2-chloro-3-(6-methoxy-5-((methylamino)methyl)pyridin-2-yl)phenyl)pyridin-2-yl)-2-methoxybenzyl)amino)propanoic acid] | 0.2 | 64.4
11 | COc1nc(-c2ccnc(-c3cccc4c3CC[C@@H]4Nc3nc(OC)c(CNC[C@@H]4CCC(=O)N4)cc3C(F)(F)F)c2Cl)ccc1CNC[C@@H]1CCC(=O)N1 [Compound 223, (S)-5-((((3′-chloro-6-methoxy-2′-((S)-1-((6-methoxy-5-(((((S)-5-oxopyrrolidin-2-yl)methyl)amino)methyl)-3-(trifluoromethyl)pyridin-2-yl)amino)-2,3-dihydro-1H-inden-4-yl)-[2,4′-bipyridin]-5-yl)methyl)amino)methyl)pyrrolidin-2-one] | 7.24 | 16.7
12 | CNCc1ccc(-c2ccnc(-c3cccc4c3CC[C@@H]4Nc3nc(OC)c(CNC)cc3C(F)(F)F)c2Cl)nc1OC [Compound 224, (S)-N-(4-(3′-chloro-6-methoxy-5-((methylamino)methyl)-[2,4′-bipyridin]-2′-yl)-2,3-dihydro-1H-inden-1-yl)-6-methoxy-5-((methylamino)methyl)-3-(trifluoromethyl)pyridin-2-amine] | 8.22 | ≥ 10000
13 | COc1nc(-c2ccnc(-c3cccc4c3CC[C@@H]4Nc3nc(OC)c(CN[C@H]4C[C@](C)(O)C4)cc3C(F)(F)F)c2Cl)ccc1CN[C@H]1C[C@](C)(O)C1 [Compound 225, (1S,3r)-3-(((3′-chloro-2′-((S)-1-((5-((((1r,3S)-3-hydroxy-3-methylcyclobutyl)amino)methyl)-6-methoxy-3-(trifluoromethyl)pyridin-2-yl)amino)-2,3-dihydro-1H-inden-4-yl)-6-methoxy-[2,4′-bipyridin]-5-yl)methyl)amino)-1-methylcyclobutan-1-ol] | 8.2 | ≥ 10000
14 | CNCc1ccc(-c2cccc(-c3ccnc(-c4ccc(CN5CC[C@H](C(=O)O)C5)c(OC)c4)c3Cl)c2Cl)nc1OC [Compound 226, (S)-1-(4-(3-chloro-4-(2-chloro-3-(6-methoxy-5-((methylamino)methyl)pyridin-2-yl)phenyl)pyridin-2-yl)-2-methoxybenzyl)pyrrolidine-3-carboxylic acid] | 0.27 | 62.7
15 | CNCc1ccc(-c2cccc(-c3ccnc(-c4ccc(CN5CC6(CC(C(=O)O)C6)C5)c(OC)c4)c3Cl)c2Cl)nc1OC [Compound 227, 2-(4-(3-chloro-4-(2-chloro-3-(6-methoxy-5-((methylamino)methyl)pyridin-2-yl)phenyl)pyridin-2-yl)-2-methoxybenzyl)-2-azaspiro[3.3]heptane-6-carboxylic acid] | 5.25 | 31.3
16 | CNCc1ccc(-c2cccc(-c3ccnc(-c4ccc(CNCC56CC(C(=O)O)(C5)C6)c(OC)c4)c3Cl)c2Cl)nc1OC [Compound 228, 3-(((4-(3-chloro-4-(2-chloro-3-(6-methoxy-5-((methylamino)methyl)pyridin-2-yl)phenyl)pyridin-2-yl)-2-methoxybenzyl)amino)methyl)bicyclo[1.1.1]pentane-1-carboxylic acid] | 0.23 | 75.5
17 | COc1cc(-c2nccc(-c3cccc(-c4ccc(CNCC(=O)O)c(OC)n4)c3Cl)c2Cl)cc2c1CN(C[C@H](C)O)CC2 [Compound 229, (S)-((6-(2-chloro-3-(3-chloro-2-(2-(2-hydroxypropyl)-8-methoxy-1,2,3,4-tetrahydroisoquinolin-6-yl)pyridin-4-yl)phenyl)-2-methoxypyridin-3-yl)methyl)glycine] | 1.13 | 244
18 | COc1nc(-c2cccc(-c3ccnc(-c4ccc5c(c4)CNC5)c3Cl)c2Cl)ccc1CN1CC2(CNC(=O)C2)C1 [Compound 230, 2-((6-(2-chloro-3-(3-chloro-2-(isoindolin-5-yl)pyridin-4-yl)phenyl)-2-methoxypyridin-3-yl)methyl)-2,6-diazaspiro[3.4]octan-7-one] | 10.8 | 392
19 | COc1cc(-c2nccc(-c3ccnc(-c4cc5c(c(OC)c4)CN(C[C@@H]4CCC(=O)N4)CC5)c3Cl)c2Cl)cc2c1CN(C[C@@H]1CCC(=O)N1)CC2 [Compound 266, (5S,5'S)-5,5′-(((3,3′-Dichloro-[4,4′-bipyridine]-2,2′-diyl)bis(8-methoxy-3,4-dihydroisoquinoline-6,2(1H)-diyl))bis(methylene))bis(pyrrolidin-2-one)] | 18.4 | 439
20 | COC(=O)[C@H](CCO)NCc1ncc(-c2nccc(-c3cccc(-c4ccc(CNC[C@@H]5CCC(=O)N5)c(OC)n4)c3Cl)c2Cl)cc1OC [Compound 267, Methyl ((3-chloro-4-(2-chloro-3-(6-methoxy-5-(((((S)-5-oxopyrrolidin-2-yl)methyl)amino)methyl)pyridin-2-yl)phenyl)-5′-methoxy-[2,3′-bipyridin]-6′-yl)methyl)-L-homoserinate] | 2.97 | 639
21 | COc1cc(-c2nccc(-c3cccc(-c4ccc(CNC[C@@H]5CCC(=O)N5)c(OC)n4)c3Cl)c2Cl)cnc1CN[C@H]1CCOC1=O [Compound 268, (S)-5-((((6-(2-Chloro-3-(3-chloro-5′-methoxy-6′-((((S)-2-oxotetrahydrofuran-3-yl)amino)methyl)-[2,3′-bipyridin]-4-yl)phenyl)-2-methoxypyridin-3-yl)methyl)-amino)methyl)pyrrolidin-2-one] | 1.46 | 669
22 | COc1cc(-c2nccc(-c3ccnc(-c4cc(F)c(CNC5CCN(C(C)=O)CC5)c(OC)c4)c3Cl)c2Cl)cc(F)c1CNC1CCN(C(C)=O)CC1 [Compound 313, 1,1′-(((((3,3′-Dichloro-[4,4′-bipyridine]-2,2′-diyl)bis(2-fluoro-6-methoxy-4,1-phenylene))bis(methylene))bis(azanediyl))bis(piperidine-4,1-diyl))bis(ethan-1-one)] | 4.6 | 97.3

— patent US20240246964A1 (Arbutus Biopharma Corporation, priority 2021, published 2024)
